Assay results reported in patent publication US11083707B2, “Substituted indoline derivatives as dengue viral replication inhibitors” (JANSSEN PHARMACEUTICALS, INC., priority 2017, dated 2021).

Tested on: Vero cells
Assay: not given
Conditions: African green monkey

SMILES | CC50
COc1cc(NC(C(=O)N2CCc3ccc(C(F)(F)F)cc32)c2ccc(F)cc2OCCO)cc(-n2cncn2)c1 (single isomer, unassigned) [Compound 1B] | 9800 nM
COc1cc(NC(C(=O)N2CCc3cc(OC)c(C(F)(F)F)cc32)c2ccc(F)cc2OCCO)cc(-n2cncn2)c1 (single isomer, unassigned) [Compound 2B] | 10000 nM
COc1cc(NC(C(=O)N2CCc3ccc(OC(F)(F)F)cc32)c2ccc(F)cc2OCCO)cc(-n2cncn2)c1 (single isomer, unassigned) [Compound 3B] | 8700 nM
COc1cc(NC(C(=O)N2CCc3ccc(C(F)(F)F)cc32)c2ccc(Cl)cc2OCCO)cc(-n2cncn2)c1 (single isomer, unassigned) [Compound 4B] | 11000 nM

Tested on: DENV-2 strain 16681
Assay: Tetravalent RT-qPCR assay Protocol A, serotype 2
Assay type: cell-based
Conditions: Dengue virus, DENV2, 72 h; RT-qPCR serotype 2 16681, Vero cells, day 3; read-out: EC50
Experimental: (§1) The antiviral activity of the compounds of the invention was tested against DENV-1 strain TC974#666 (NCPV), DENV-2 strain 16681, DENV-3 strain H87 (NCPV) and DENV-4 strain H241 (NCPV) in a RT-qPCR assay. Therefore, Vero cells were infected with either DENV-1, or -2, or -3, or -4 in the presence or absence of test compounds. At day 3 post-infection, the cells were lysed and cell lysates were used to prepare cDNA of both a viral target (the 3′UTR of DENV; Table 2) and a cellular reference gene (β-actin, Table 2). Subsequently, a duplex real time PCR was performed on a Lightcycler480 instrument. The generated Cp value is inversely proportional to the amount of RNA expression of these targets. Inhibition of DENV replication by a test compound results in a shift of Cp's for the 3′UTR gene. On the other hand, if a test compound is toxic to the cells, a similar effect on β-actin expression will be observed. The comparative ΔΔCp method is used to calculate EC50, which is based on the relative gene expression of the target gene (3′UTR) normalized with the cellular housekeeping gene (β-actin). In addition, CC50 values are determined based on the Cp values acquired for the housekeeping gene β-actin.
(§2) The culture medium consisted of minimal essential medium supplemented with 2% of heat-inactivated fetal calf serum, 0.04% gentamycin (50 mg/mL) and 2 mM of L-glutamine. Vero cells, obtained from ECACC, were suspended in culture medium and 75 μL/well was added in 96-well plates (10000 cells/well), which already contain the antiviral compounds. […] In addition, each plate contains wells which are assigned as virus controls (containing cells and virus in the absence of compound) and cell controls (containing cells in the absence of virus and compound). Once the cells were added in the plates, the plates were incubated in a fully humidified incubator (37° C., 5% CO2) until the next day. Dengue viruses serotype-1, 2, 3 and 4 were diluted in order to obtain a Cp of ˜22-24 in the assay. Therefore, 25 μL of virus suspension was added to all the wells containing test compound and to the wells assigned as virus control. In parallel, 25 μL of culture medium was added to the cell controls. Next, the plates were incubated for 3 days in a fully humidified incubator (37° C., 5% CO2). After 3 days, the supernatant was removed from the wells and the cells were washed twice with ice-cold PBS (˜100 μL). The cell pellets within the 96-well plates were stored at −80° C. for at least 1 day. Next, RNA was extracted using the Cells-to-CT™ lysis kit, according to the manufacturer's guideline (Life Technologies). The cell lysates can be stored at −80° C. or immediately used in the reverse transcription step.
(§3) In preparation of the reverse transcription step, mix A (table 3A) was prepared and 7.57 μL/well was dispensed in a 96-well plate. After addition of 5 μL of the cell lysates, a five minute denaturation step at 75° C. was performed (table 3B). Afterwards, 7.43 μL of mix B was added (table 3C) and the reverse transcription step was initiated (table 3D) to generate cDNA.
(§4) Finally, a RT-qPCR mix was prepared, mix C (table 4A), and 22.02 μL/well was dispensed in 96-well LightCycler qPCR plates to which 3 μL of cDNA was added and the qPCR was performed according to the conditions in table 4B on a LightCycler 480.
(§5) Using the LightCycler software and an in-house LIMS system, dose response curves for each compound were calculated and the half maximal effective concentration (EC50) and the half maximal cytotoxic concentration (CC50) were determined (Tables 5-8).

SMILES | EC50
COc1cc(NC(C(=O)N2CCc3ccc(C(F)(F)F)cc32)c2ccc(F)cc2OCCO)cc(-n2cncn2)c1 (single isomer, unassigned) [Compound 1B] | 2.4 nM
COc1cc(NC(C(=O)N2CCc3cc(OC)c(C(F)(F)F)cc32)c2ccc(F)cc2OCCO)cc(-n2cncn2)c1 (single isomer, unassigned) [Compound 2B] | 2.1 nM
COc1cc(NC(C(=O)N2CCc3ccc(OC(F)(F)F)cc32)c2ccc(F)cc2OCCO)cc(-n2cncn2)c1 (single isomer, unassigned) [Compound 3B] | 1.4 nM
COc1cc(NC(C(=O)N2CCc3ccc(C(F)(F)F)cc32)c2ccc(Cl)cc2OCCO)cc(-n2cncn2)c1 (single isomer, unassigned) [Compound 4B] | 0.45 nM

Tested on: not listed separately
Assay: in vitro
Assay type: cell-based
Conditions: African green monkey
Experimental: as §1, §2, §3, §4, §5

SMILES | CC50 at 3 days
COc1cc(NC(C(=O)N2CCc3ccc(C(F)(F)F)cc32)c2ccc(F)cc2OCCO)cc(-n2cncn2)c1 (single isomer, unassigned) [Compound 1B] | > 2500 nM
COc1cc(NC(C(=O)N2CCc3cc(OC)c(C(F)(F)F)cc32)c2ccc(F)cc2OCCO)cc(-n2cncn2)c1 (single isomer, unassigned) [Compound 2B] | > 2500 nM
COc1cc(NC(C(=O)N2CCc3ccc(C(F)(F)F)cc32)c2ccc(Cl)cc2OCCO)cc(-n2cncn2)c1 (single isomer, unassigned) [Compound 4B] | > 2500 nM

Tested on: DENV-4 strain H241
Assay: Tetravalent RT-qPCR assay Protocol A, serotype 4
Assay type: cell-based
Conditions: Dengue virus, DENV4, 72 h; RT-qPCR serotype 4 H241, Vero cells, day 3
Experimental: as §1, §2, §3, §4, §5

SMILES | EC50
COc1cc(NC(C(=O)N2CCc3ccc(C(F)(F)F)cc32)c2ccc(F)cc2OCCO)cc(-n2cncn2)c1 (single isomer, unassigned) [Compound 1B] | 180 nM
COc1cc(NC(C(=O)N2CCc3cc(OC)c(C(F)(F)F)cc32)c2ccc(F)cc2OCCO)cc(-n2cncn2)c1 (single isomer, unassigned) [Compound 2B] | 150 nM
COc1cc(NC(C(=O)N2CCc3ccc(OC(F)(F)F)cc32)c2ccc(F)cc2OCCO)cc(-n2cncn2)c1 (single isomer, unassigned) [Compound 3B] | 98 nM
COc1cc(NC(C(=O)N2CCc3ccc(C(F)(F)F)cc32)c2ccc(Cl)cc2OCCO)cc(-n2cncn2)c1 (single isomer, unassigned) [Compound 4B] | 76 nM

Tested on: DENV-1 strain TC974#666
Assay: Tetravalent RT-qPCR assay Protocol A, serotype 1
Assay type: cell-based
Conditions: Dengue virus, DENV1, 72 h; RT-qPCR serotype 1 TC974#666, Vero cells, day 3
Experimental: as §1, §2, §3, §4, §5

SMILES | EC50
COc1cc(NC(C(=O)N2CCc3ccc(C(F)(F)F)cc32)c2ccc(F)cc2OCCO)cc(-n2cncn2)c1 (single isomer, unassigned) [Compound 1B] | 1.5 nM
COc1cc(NC(C(=O)N2CCc3cc(OC)c(C(F)(F)F)cc32)c2ccc(F)cc2OCCO)cc(-n2cncn2)c1 (single isomer, unassigned) [Compound 2B] | 6 nM
COc1cc(NC(C(=O)N2CCc3ccc(OC(F)(F)F)cc32)c2ccc(F)cc2OCCO)cc(-n2cncn2)c1 (single isomer, unassigned) [Compound 3B] | 2.4 nM
COc1cc(NC(C(=O)N2CCc3ccc(C(F)(F)F)cc32)c2ccc(Cl)cc2OCCO)cc(-n2cncn2)c1 (single isomer, unassigned) [Compound 4B] | 0.57 nM

Tested on: DENV-3 strain H87
Assay: Tetravalent RT-qPCR assay Protocol A, serotype 3
Assay type: cell-based
Conditions: Dengue virus, DENV3, 72 h; RT-qPCR serotype 3 H87, Vero cells, day 3
Experimental: as §1, §2, §3, §4, §5

SMILES | EC50
COc1cc(NC(C(=O)N2CCc3ccc(C(F)(F)F)cc32)c2ccc(F)cc2OCCO)cc(-n2cncn2)c1 (single isomer, unassigned) [Compound 1B] | 25 nM
COc1cc(NC(C(=O)N2CCc3cc(OC)c(C(F)(F)F)cc32)c2ccc(F)cc2OCCO)cc(-n2cncn2)c1 (single isomer, unassigned) [Compound 2B] | 38 nM
COc1cc(NC(C(=O)N2CCc3ccc(OC(F)(F)F)cc32)c2ccc(F)cc2OCCO)cc(-n2cncn2)c1 (single isomer, unassigned) [Compound 3B] | 23 nM
COc1cc(NC(C(=O)N2CCc3ccc(C(F)(F)F)cc32)c2ccc(Cl)cc2OCCO)cc(-n2cncn2)c1 (single isomer, unassigned) [Compound 4B] | 11 nM

Tested on: DENV-2 16681 strain
Assay: DENV-2 antiviral assay (eGFP fluorescence, Vero cells)
Assay type: cell-based, Dengue virus
Conditions: DENV-2 16681 eGFP, MOI 0.5, 3 days
Experimental: The antiviral activity of all the compounds of the invention was tested against the DENV-2 16681 strain which was labeled with enhanced green fluorescent protein (eGPF). The culture medium consists of minimal essential medium supplemented with 2% of heat-inactivated fetal calf serum, 0.04% gentamycin (50 mg/mL) and 2 mM of L-glutamine. Vero cells, obtained from ECACC, were suspended in culture medium and 25 μL was added to 384-well plates (2500 cells/well), which already contain the antiviral compounds. Typically, these plates contain a 5-fold serial dilution of 9 dilution steps of the test compound at 200 times the final concentration in 100% DMSO (200 nL). […] Finally, each plate contains wells which are assigned as virus controls (containing cells and virus in the absence of compound), cell controls (containing cells in the absence of virus and compound) and medium controls (containing medium in the absence of cells, virus and compounds). To the wells assigned as medium control, 25 μL of culture medium was added instead of Vero cells. Once the cells were added to the plates, the plates were incubated for 30 minutes at room temperature to allow the cells to distribute evenly within the wells. Next, the plates were incubated in a fully humidified incubator (37° C., 5% CO2) until the next day. Then, DENV-2 strain 16681, labeled with eGFP, was added at a multiplicity of infection (MOI) of 0.5. Therefore, 15 μL of virus suspension was added to all the wells containing test compound and to the wells assigned as virus control. In parallel, 15 μL of culture medium was added to the medium and cell controls. Next, the plates were incubated for 3 days in a fully humidified incubator (37° C., 5% CO2). At the day of the read out, the eGFP fluorescence was measured using an automated fluorescence microscope at 488 nm (blue laser). Using an in-house LIMS system, inhibition dose response curves for each compound were calculated and the half maximal effective concentration (EC50) was determined. Therefore, the percent inhibition (I) for every test concentration is calculated using the following formula: I=100*(ST-SCC)/(SVC-SCC), ST, SCC and SVC are the amount of eGFP signal in the test compound, cell control and virus control wells, respectively. The EC50 represents the concentration of a compound at which the virus replication is inhibited with 50%, as measured by a 50% reduction of the eGFP fluorescent intensity compared to the virus control. The EC50 is calculated using linear interpolation (Table 1).

SMILES | EC50
COc1cc(NC(C(=O)N2CCc3ccc(C(F)(F)F)cc32)c2ccc(F)cc2OCCO)cc(-n2cncn2)c1 (single isomer, unassigned) [Compound 1B] | 2.8 nM
COc1cc(NC(C(=O)N2CCc3cc(OC)c(C(F)(F)F)cc32)c2ccc(F)cc2OCCO)cc(-n2cncn2)c1 (single isomer, unassigned) [Compound 2B] | 1.8 nM
COc1cc(NC(C(=O)N2CCc3ccc(OC(F)(F)F)cc32)c2ccc(F)cc2OCCO)cc(-n2cncn2)c1 (single isomer, unassigned) [Compound 3B] | 0.99 nM
COc1cc(NC(C(=O)N2CCc3ccc(C(F)(F)F)cc32)c2ccc(Cl)cc2OCCO)cc(-n2cncn2)c1 (single isomer, unassigned) [Compound 4B] | 1 nM
